Results reported in publication PMC9938899, “Rice-memolin, a novel peptide derived from rice bran, improves cognitive function after oral administration in mice” (Scientific Reports, 2023).
Where no end group is shown, it is not given here.

What was measured:
mice fed HFD = experiment: novel object recognition test (ORT) in mice fed a high-fat diet; assay type: in vivo; conditions: MLA 0.3 mg/kg i.p. with rice-memolin 1 mg/kg p.o. once a day for 3 days, n = 3–5 (Fig. 4)
Procedure: Male ddY mice (11 weeks old) were obtained from SLC (Shizuoka, Japan). They were kept in a temperature-controlled room (23 °C) on a daily 12-h light: 12-h dark cycle. After one week-acclimatization, these mice were fed MF pellets (Oriental Yeast, Tokyo, Japan) as control diet, HFD60 pellets (Oriental Yeast Co., Ltd, Japan) as high-fat diet, or HFD 60 pellets containing 0.04% rice bran protein digest (specially ordered from Oriental Yeast Co., Ltd, Japan) with free access to water for 7 days. The component of HFD60 was previously reported. Animal experiments were conducted in accordance with the Fundamental Guidelines for Proper Conduct of Animal Experiment and Related Activities in Academic Research Institutions under the jurisdiction of the Ministry of Education, Culture, Sports, Science and Technology of Japan, and were approved by the Committee on Animal Experimentation at Kyoto University, Japan. All experiments were approved by the Kyoto University Ethics Committee for Animal Research Use, permission code was R3-13. […]
Cognitive function was evaluated on Day 6 and 7 using two behavioral pharmacological tests: novel object recognition test (ORT) and object location test (OLT). […] Using the ORT, effect of donepezil, a drug currently used for the relief of cognitive deficits associated with mild to moderate Alzheimer’s diseases, was evaluated. […]

pepsin and pancreatin = pepsin and pancreatin digestion of VYTPG with LCMS analysis; assay type: in vitro ADME; conditions: simulated gastrointestinal digestion; each enzyme treatment time 1 h; LCMS analysis (Supplemental Fig. S1)
Procedure: Pepsin and pancreatin digests of VYTPG and LCMS analysis were performed in a similar manner to previous studies (Shobako et al.) with slight modifications to simulate peptide bioavailability. Each enzyme treatment time was 1 h.

| Molecule | effect on the rice-memolin-induced improvement in the novel ORT (mice fed HFD) | stability to digestion by pepsin and pancreatin (pepsin and pancreatin) |
| --- | --- | --- |
| CCN1C[C@]2(COC(=O)c3ccccc3N3C(=O)C[C@H](C)C3=O)CC[C@H](OC)[C@@]34[C@@H]5C[C@H]6[C@H](OC)[C@@H]5[C@](O)(C[C@@H]6OC)[C@@](O)([C@@H](OC)[C@H]23)[C@@H]14 [MLA, methyllycaconitine] | inhibited the effects of rice-memolin |  |
| VYTPG [VYTPG, Val-Tyr-Thr-Pro-Gly] |  | existed even after digestion by pepsin and pancreatin |
